Structures are written as SMILES.

What is called EC50 is the concentration needed to bring the measured effect to its halfway point. Lower therefore signals greater potency.

For this test, the target named is T1, human M2 receptor (Homo sapiens, UniProt P08172).
T1 sequence (P08172 1-466): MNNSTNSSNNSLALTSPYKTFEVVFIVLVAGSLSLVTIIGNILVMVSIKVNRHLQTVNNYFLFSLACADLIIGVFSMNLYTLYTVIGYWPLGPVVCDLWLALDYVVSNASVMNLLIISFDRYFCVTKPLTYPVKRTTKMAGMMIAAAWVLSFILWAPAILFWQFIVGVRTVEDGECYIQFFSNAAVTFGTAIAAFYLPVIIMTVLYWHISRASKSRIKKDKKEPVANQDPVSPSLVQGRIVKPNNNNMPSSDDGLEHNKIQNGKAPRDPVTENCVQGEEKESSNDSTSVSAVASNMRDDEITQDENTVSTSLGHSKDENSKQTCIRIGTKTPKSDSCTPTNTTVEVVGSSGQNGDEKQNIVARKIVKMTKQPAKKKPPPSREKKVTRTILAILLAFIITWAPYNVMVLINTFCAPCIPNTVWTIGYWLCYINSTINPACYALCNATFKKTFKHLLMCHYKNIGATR
The settings on record: Receptor activity EC50, M2-GIRK1/4 activation test, acetylcholine at EC20; allosteric potency; in some cases mean values from two or more determinations.
`CCCC(NC(=O)c1cn(-c2ccc(F)cc2F)c2nc(NCCO)ccc2c1=O)C(F)(F)F` (stereo not shown) [Example 81, 1-(2,4-Difluorophenyl)-7-[(2-hydroxyethyl)amino]-4-oxo-N-[1,1,1-trifluoropentan-2-yl]-1,4-dihydro-1,8-naphthyridine-3-carboxamide] registered an EC50 of 102 nM. The figure for `CN(CCO)c1ccc2c(=O)c(C(=O)NC34CC5CC(CC(C5)C3)C4)cn(-c3ccc(F)cc3F)c2n1` [Example 82, 1-(2,4-Difluorophenyl)-7-[(2-hydroxyethyl)(methyl)amino]-4-oxo-N-(tricyclo[3.3.1.1^3,7]dec-1-yl)-1,4-dihydro-1,8-naphthyridine-3-carboxamide] is 60 nM; for `O=C(NC12CC3CC(CC(C3)C1)C2)c1cn(-c2ccc(F)cc2F)c2nc(NCCF)ccc2c1=O` [Example 83, 1-(2,4-Difluorophenyl)-7-[(2-fluoroethyl)amino]-4-oxo-N-(tricyclo[3.3.1.1^3,7]dec-1-yl)-1,4-dihydro-1,8-naphthyridine-3-carboxamide] it is 110 nM. Compound `CC(C)CC(NC(=O)c1cn(-c2ccc(F)cc2F)c2nc(NCCF)ccc2c1=O)C(F)(F)F` (stereo not shown) [Example 88] yielded an EC50 of 42 nM. The figure for `O=C(NC12CC3CC(CC(F)(C3)C1)C2)c1cn(-c2ccc(F)cc2F)c2nc(NCC(F)(F)F)ccc2c1=O` [Example 91, 1-(2,4-Difluorophenyl)-N-(3-fluorotricyclo[3.3.1.1^3,7]dec-1-yl)-4-oxo-7-[(2,2,2-trifluoroethyl)amino]-1,4-dihydro-1,8-naphthyridine-3-carboxamide] is 58 nM; for `O=C(NC12CC3CC(F)(CC(F)(C3)C1)C2)c1cn(-c2ccc(F)cc2F)c2nc(NCC(F)(F)F)ccc2c1=O` [Example 92, 1-(2,4-Difluorophenyl)-N-(3,5-difluorotricyclo[3.3.1.1^3,7]dec-1-yl)-4-oxo-7-[(2,2,2-trifluoroethyl)amino]-1,4-dihydro-1,8-naphthyridine-3-carboxamide] it is 174 nM.

With `CC[C@@H](NC(=O)c1cn(-c2ccc(F)cc2F)c2nc(NCC(F)(F)F)ccc2c1=O)C(F)(F)F` [Example 94, 1-(2,4-Difluorophenyl)-4-oxo-N-[(2R)-1,1,1-trifluorobutan-2-yl]-7-[(2,2,2-trifluoroethyl)amino]-1,4-dihydro-1,8-naphthyridine-3-carboxamide], the response was half-maximal at 164 nM (EC50). Then `O=C(NC1(C(F)(F)F)CCCC1)c1cn(-c2ccc(F)cc2F)c2nc(NCC(F)(F)F)ccc2c1=O` [Example 96, 1-(2,4-Difluorophenyl)-4-oxo-7-[(2,2,2-trifluoroethyl)amino]-N-[1-(trifluoromethyl)cyclopentyl]-1,4-dihydro-1,8-naphthyridine-3-carboxamide], with 134 nM. Then `CN(CCF)c1ccc2c(=O)c(C(=O)NC34CC5CC(CC(C5)C3)C4)cn(-c3ccc(F)cc3F)c2n1` [Example 101, 1-(2,4-Difluorophenyl)-7-[(2-fluoroethyl)(methyl)amino]-4-oxo-N-(tricyclo[3.3.1.1^3,7]dec-1-yl)-1,4-dihydro-1,8-naphthyridine-3-carboxamide], with 26 nM; and `CN(CCF)c1ccc2c(=O)c(C(=O)NC34CC5CC(CC(F)(C5)C3)C4)cn(-c3ccc(F)cc3F)c2n1` [Example 102, 1-(2,4-Difluorophenyl)-7-[(2-fluoroethyl)(methyl)amino]-N-(3-fluorotricyclo[3.3.1.1^3,7]dec-1-yl)-4-oxo-1,4-dihydro-1,8-naphthyridine-3-carboxamide], with 31 nM; and `CC[C@H](NC(=O)c1cn(-c2ccc(F)cc2F)c2nc(N(C)CCF)ccc2c1=O)C(F)(F)F` [Example 103, 1-(2,4-Difluorophenyl)-7-[(2-fluoroethyl)(methyl)amino]-4-oxo-N-[(2S)-1,1,1-trifluorobutan-2-yl]-1,4-dihydro-1,8-naphthyridine-3-carboxamide], with 50 nM. The figure for `CCCC(NC(=O)c1cn(-c2ccc(F)cc2F)c2nc(N(C)CCF)ccc2c1=O)C(F)(F)F` (stereo not shown) [Example 106, 1-(2,4-Difluorophenyl)-7-[(2-fluoroethyl)(methyl)amino]-4-oxo-N-[1,1,1-trifluoropentan-2-yl]-1,4-dihydro-1,8-naphthyridine-3-carboxamide] is 32 nM.

In turn, `CC(C)C(NC(=O)c1cn(-c2ccc(F)cc2F)c2nc(N(C)CCF)ccc2c1=O)C(F)(F)F` (stereo not shown) [Example 108, 1-(2,4-Difluorophenyl)-7-[(2-fluoroethyl)(methyl)amino]-4-oxo-N-[1,1,1-trifluoro-3-methylbutan-2-yl]-1,4-dihydro-1,8-naphthyridine-3-carboxamide] gave an EC50 of 24 nM. The figure for `CN(CCF)c1ccc2c(=O)c(C(=O)NC3(C(F)(F)F)CC3)cn(-c3ccc(F)cc3F)c2n1` [Example 109, 1-(2,4-Difluorophenyl)-7-[(2-fluoroethyl)(methyl)amino]-4-oxo-N-[1-(trifluoromethyl)cyclopropyl]-1,4-dihydro-1,8-naphthyridine-3-carboxamide] is 187 nM; for `CN(CCF)c1ccc2c(=O)c(C(=O)NC34CCC(F)(CC3)CC4)cn(-c3ccc(F)cc3F)c2n1` [Example 110, 1-(2,4-Difluorophenyl)-N-(4-fluorobicyclo[2.2.2]oct-1-yl)-7-[(2-fluoroethyl)(methyl)amino]-4-oxo-1,4-dihydro-1,8-naphthyridine-3-carboxamide] it is 62 nM. The figure for `CN(CC(F)F)c1ccc2c(=O)c(C(=O)NC34CC5CC(CC(C5)C3)C4)cn(-c3ccc(F)cc3F)c2n1` [Example 112, 7-[(2,2-Difluoroethyl)(methyl)amino]-1-(2,4-difluorophenyl)-4-oxo-N-(tricyclo[3.3.1.1^3,7]dec-1-yl)-1,4-dihydro-1,8-naphthyridine-3-carboxamide] is 29 nM; for `CN(CC(F)F)c1ccc2c(=O)c(C(=O)NC(C(F)(F)F)C(F)(F)F)cn(-c3ccc(F)cc3F)c2n1` [Example 115, 7-[(2,2-Difluoroethyl)(methyl)amino]-1-(2,4-difluorophenyl)-N-[1,1,1,3,3,3-hexafluoropropan-2-yl)-4-oxo-1,4-dihydro-1,8-naphthyridine-3-carboxamide] it is 73 nM. `O=C(NC12CC3CC(CC(C3)C1)C2)c1cn(-c2ccc(F)cc2F)c2nc(N3CCC(O)(CO)CC3)ccc2c1=O` [Example 116, 1-(2,4-Difluorophenyl)-7-[4-hydroxy-4-(hydroxymethyl)piperidin-1-yl]-4-oxo-N-(tricyclo[3.3.1.1^3,7]dec-1-yl)-1,4-dihydro-1,8-naphthyridine-3-carboxamide] had a concentration giving a half-maximal response (EC50) of 59 nM. Take `O=C(NC12CC3CC(CC(C3)C1)C2)c1cn(-c2ccc(F)cc2F)c2nc(N3CCOC[C@H]3CO)ccc2c1=O` [Example 117, 1-(2,4-Difluorophenyl)-7-[(3R)-3-(hydroxymethyl)morpholin-4-yl]-4-oxo-N-(tricyclo[3.3.1.1^3,7]dec-1-yl)-1,4-dihydro-1,8-naphthyridine-3-carboxamide]: the EC50 was determined as 89 nM. The figure for `O=C(NC12CC3CC(CC(C3)C1)C2)c1cn(-c2ccc(F)cc2F)c2nc(NCC(F)F)ccc2c1=O` [Example 120, 7-[(2,2-Difluoroethyl)amino]-1-(2,4-difluorophenyl)-4-oxo-N-(tricyclo[3.3.1.1^3,7]dec-1-yl)-1,4-dihydro-1,8-naphthyridine-3-carboxamide] is 62 nM. Then `CCCC(NC(=O)c1cn(-c2ccc(F)cc2F)c2nc(NCC(F)F)ccc2c1=O)C(F)(F)F` (stereo not shown) [Example 124, 7-[(2,2-Difluoroethyl)amino]-1-(2,4-difluorophenyl)-4-oxo-N-[1,1,1-trifluoropentan-2-yl]-1,4-dihydro-1,8-naphthyridine-3-carboxamide], with 155 nM; and `O=C(NC(C(F)(F)F)C(F)(F)F)c1cn(-c2ccc(F)cc2F)c2nc(NCC(F)F)ccc2c1=O` [Example 126, 7-[(2,2-Difluoroethyl)amino]-1-(2,4-difluorophenyl)-N-(1,1,1,3,3,3-hexafluoropropan-2-yl)-4-oxo-1,4-dihydro-1,8-naphthyridine-3-carboxamide], with 180 nM. Then `O=C(NC12CC3CC(CC(C3)C1)C2)c1cn(-c2ccc(F)cc2F)c2nc(N3CCSC3)ccc2c1=O` [Example 129, 1-(2,4-Difluorophenyl)-4-oxo-7-(1,3-thiazolidin-3-yl)-N-(tricyclo[3.3.1.1^3,7]dec-1-yl)-1,4-dihydro-1,8-naphthyridine-3-carboxamide], with 45 nM. `O=C(NC12CC3CC(CC(C3)C1)C2)c1cn(-c2ccc(F)cc2F)c2nc(N3CCS(=O)(=O)C3)ccc2c1=O` [Example 130, 1-(2,4-Difluorophenyl)-7-(1,1-dioxido-1,3-thiazolidin-3-yl)-4-oxo-N-(tricyclo[3.3.1.1^3,7]dec-1-yl)-1,4-dihydro-1,8-naphthyridine-3-carboxamide] gave an EC50 of 113 nM.

`O=C(NC12CC3CC(CC(C3)C1)C2)c1cn(-c2ccc(F)cc2F)c2nc(N3CC[S+]([O-])C3)ccc2c1=O` (stereo not shown) [Example 131, 1-(2,4-Difluorophenyl)-7-(1-oxido-1,3-thiazolidin-3-yl)-4-oxo-N-(tricyclo[3.3.1.1^3,7]dec-1-yl)-1,4-dihydro-1,8-naphthyridine-3-carboxamide] displayed a concentration giving a half-maximal response (EC50) of 157 nM.

Source of the values: US20190367516A1 (Bayer Pharma Aktiengesellschaft, priority 2015, published 2019).
